Data on one compound can be found in patent publication US7223839B2, “Histamine receptor H3 polynucleotides” (Merck & Co., Inc., priority 2001, dated 2007).

The structures appear in SMILES notation.

The target in experiment [1] is H3b variant (Homo sapiens, UniProt Q9Y5N1, E19D). The settings on record: COS-7 cells transfected with H3b; 1 μM BODIPY-L-Histamine or Fluorescein Histamine in PBS, 37° C., 30 min; compared with H3a wild type. The procedure: (§1) The full length wild type receptor (H3a) and receptor variants H3g and H3h, as well as the variant H3b (which contains the 240 base, 80 amino acid deletion in intracellular loop 3 (i3) but not the N-terminal 108 base, 36 amino acid deletion), were cloned in pCDNA3.0 eukaryotic expression vector for expression in COS-7 cells. The COS-7 cells grown in culture chambers were transfected with 2 μg of plasmid DNA containing one of the H3 receptor or receptor variants with superfect (Qiagen) transfection reagent.
Sequence of H3b variant (Q9Y5N1 1-365 isoform Q9Y5N1-3 E19D): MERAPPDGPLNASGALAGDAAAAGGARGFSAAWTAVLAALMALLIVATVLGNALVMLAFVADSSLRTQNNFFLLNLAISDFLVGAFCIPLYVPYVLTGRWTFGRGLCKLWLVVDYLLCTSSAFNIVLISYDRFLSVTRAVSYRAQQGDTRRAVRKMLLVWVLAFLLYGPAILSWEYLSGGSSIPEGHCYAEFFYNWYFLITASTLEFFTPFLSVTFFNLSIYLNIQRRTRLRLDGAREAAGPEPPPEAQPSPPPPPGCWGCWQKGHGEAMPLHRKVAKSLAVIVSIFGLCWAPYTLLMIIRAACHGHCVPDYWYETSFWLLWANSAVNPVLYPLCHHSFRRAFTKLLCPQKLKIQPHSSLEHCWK
(§2) Binding of Histamine to receptor or receptor variant was determined by BODIPY-L-Histamine or Fluorescein Histamine (Molecular Probes). Briefly, the transfected cells were washed with PBS and 1 μM of BODIPY-L-Histamine or Fluorescein Histamine in PBS was added to the cells and incubated at 37° C. for 30 min. Unbound fluorescent labeled histamine was washed in cold PBS and the slides were examined immediately under a fluorescent microscope.

Experiment [2] addresses H3g receptor variant (Homo sapiens, UniProt Q9Y5N1, DEL7-42). The note with it: COS-7 cells transfected with H3g; 1 μM BODIPY-L-Histamine or Fluorescein Histamine in PBS, 37° C., 30 min; compared with H3a wild type. The procedure:
as §1, §2

Experiment [3] has as its target H3h receptor variant (Homo sapiens, UniProt Q9Y5N1, DEL7-42). The note with it: COS-7 cells transfected with H3h; 1 μM BODIPY-L-Histamine or Fluorescein Histamine in PBS, 37° C., 30 min; compared with H3a wild type. On the procedure:
as §1, §2

Sequence of H3h receptor variant (Q9Y5N1 with tags, fused parts or gaps isoform Q9Y5N1-3 DEL7-42): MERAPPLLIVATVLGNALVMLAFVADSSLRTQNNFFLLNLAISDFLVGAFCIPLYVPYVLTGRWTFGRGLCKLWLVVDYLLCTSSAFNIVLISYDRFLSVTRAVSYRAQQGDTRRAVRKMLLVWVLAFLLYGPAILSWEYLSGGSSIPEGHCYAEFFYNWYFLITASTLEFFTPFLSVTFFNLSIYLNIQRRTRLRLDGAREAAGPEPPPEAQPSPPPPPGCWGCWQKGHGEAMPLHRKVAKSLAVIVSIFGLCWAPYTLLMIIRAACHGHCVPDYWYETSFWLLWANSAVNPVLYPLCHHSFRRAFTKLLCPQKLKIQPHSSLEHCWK
Sequence of H3g receptor variant (Q9Y5N1 with tags, fused parts or gaps DEL7-42): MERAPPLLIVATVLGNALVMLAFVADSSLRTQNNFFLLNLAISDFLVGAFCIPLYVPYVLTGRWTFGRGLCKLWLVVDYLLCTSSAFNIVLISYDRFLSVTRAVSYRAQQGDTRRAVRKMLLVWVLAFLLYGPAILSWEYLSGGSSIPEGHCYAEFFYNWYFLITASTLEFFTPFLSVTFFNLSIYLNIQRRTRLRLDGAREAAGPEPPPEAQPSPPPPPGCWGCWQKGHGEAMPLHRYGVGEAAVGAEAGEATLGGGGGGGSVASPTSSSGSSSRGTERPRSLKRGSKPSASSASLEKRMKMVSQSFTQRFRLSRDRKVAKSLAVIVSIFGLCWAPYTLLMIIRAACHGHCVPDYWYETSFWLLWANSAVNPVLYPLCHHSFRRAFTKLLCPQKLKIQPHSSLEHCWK

On to `NCCc1c[nH]cn1` [histamine], for which the histamine binding entry in experiment [1], in experiment [2] and in experiment [3] was “comparable to the cell transfected with the H3a wild type receptor” in each case.
